Literature values in patent US20080113949A1, “Use of dipyridamole in combination with acetylsalicylic acid and an angiotensin II antagonist for stroke prevention” (priority 2003, published 2008).

Settings: clinical study ESPS-2; compared with aspirin

Question: For OCCN(CCO)c1nc(N2CCCCC2)c2nc(N(CCO)CCO)nc(N3CCCCC3)c2n1 [dipyridamole, 2,6-bis(diethanolamino)-4,8-dipiperidino-pyrimido[5,4-d]pyrimidine], which “reduction of stroke risk” value is on record?
Answer: as effective as low-dose aspirin
